A word on the pIC50: it is the negative decadic logarithm of the IC50, by convention in mol/L.

Our source for the IC50 values is patent publication US20090306149A1, “USE OF BIARYLCARBOXAMIES IN THE TREATMENT OF HEDGEHOG PATHWAY-RELATED DISORDERS” (priority 2006, published 2009).

The structures appear in SMILES notation. pIC50: −log10 of the molar value. Read-outs that look alike come from different tables or passages of the source.

One assay deals with Smoothened (Homo sapiens, UniProt Q99835). As to the kind of experiment: Smo binding assay, displacement of a small molecule agonist of Smoothened, filter binding format. An excerpt:
A Smo binding assay was developed using radio-labeled smoothened agonist for compound competition.
Table 1, infra; lists the IC50 for displacement of a small molecule agonist of Smoothened determined in a filter binding format.

Assay [1] relates to gli-luciferase activity (Hh pathway) in TMHh12 cells. The experiment in a line: "IC50 shift" gli-luciferase reporter assay in TMHh12 cells with a small molecule Smo agonist. Type of assay: cell-based, mouse. The settings on record: Mus musculus, TMHh12, TMHh12 cells. As to the method:
TM3 cells (mouse) transfected with a new proprietary reporter construct (pTA-8xGli-Luc). The pTA-8xGli-Luc reporter produces approx. 4 fold more luciferase activity than classical 8xGli-LUC. A highly responsive stable clone has been selected (TMHh12) with >10-fold signal/noise ratio and <10% CV in 384 well format.
“IC50 shift” assays in TMHh12 cells. IC50 for antagonism of gli-luciferase activity was tested in the presence of increasing concentrations of a small molecule agonist which binds to Smo with 1 nM affinity and activates the Hh pathway.
Table 1 lists the IC50 of antagonists determined in the presence of different (1 nM and 25 nM) concentrations of a small agonist of Smoothened.
Background: In a reporter assay the amount or activity of a reporter protein is the signal.

Where [2] appears, read: 1 nM small molecule Smo agonist, read-out: Gli_luc (1 nM Smo agonist) IC50.
[3] abbreviates: 25 nM small molecule Smo agonist, read-out: Gli_luc (25 nM Smo agonist) IC50.

Sequence of Smoothened (Q99835 28-787): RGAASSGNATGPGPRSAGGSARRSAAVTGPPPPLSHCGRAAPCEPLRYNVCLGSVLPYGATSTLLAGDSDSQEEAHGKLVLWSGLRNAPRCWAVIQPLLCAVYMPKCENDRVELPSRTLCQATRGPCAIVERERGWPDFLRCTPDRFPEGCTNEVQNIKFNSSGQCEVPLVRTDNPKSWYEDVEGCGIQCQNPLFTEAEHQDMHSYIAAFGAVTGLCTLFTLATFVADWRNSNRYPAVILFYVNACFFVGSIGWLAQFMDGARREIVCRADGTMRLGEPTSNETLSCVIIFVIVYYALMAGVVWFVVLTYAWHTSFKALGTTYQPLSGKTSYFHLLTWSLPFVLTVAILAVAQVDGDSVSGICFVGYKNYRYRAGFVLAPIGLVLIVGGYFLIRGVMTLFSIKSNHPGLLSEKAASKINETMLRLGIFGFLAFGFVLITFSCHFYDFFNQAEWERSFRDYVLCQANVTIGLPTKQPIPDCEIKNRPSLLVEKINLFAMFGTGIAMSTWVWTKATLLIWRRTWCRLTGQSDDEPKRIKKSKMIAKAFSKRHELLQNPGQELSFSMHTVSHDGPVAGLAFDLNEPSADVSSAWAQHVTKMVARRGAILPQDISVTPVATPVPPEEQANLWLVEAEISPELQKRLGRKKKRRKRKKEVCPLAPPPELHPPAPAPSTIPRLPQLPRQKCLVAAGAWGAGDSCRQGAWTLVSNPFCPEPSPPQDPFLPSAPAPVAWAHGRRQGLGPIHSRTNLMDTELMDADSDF

With `COc1ccc(CN[C@H]2Cc3ccc(NC(=O)c4cccc(C)c4-c4ccc(C(F)(F)F)cc4)cc3C2)cc1` [Example 23], the results for the pIC50 (at Smoothened; in assay [1] (setting [2]); in assay [1] (setting [3])) were 7.03, 6.46 and 5.52, respectively.

Regarding `Cc1cccc(C(=O)Nc2ccc3c(c2)C[C@@H](NCc2ccc4c(c2)OC(F)(F)O4)C3)c1-c1ccc(C(F)(F)F)cc1` [Example 25], the pIC50 at Smoothened was 7.05; in assay [1] (setting [2]), 6.39; in assay [1] (setting [3]), 5.60.

For the molecule `Cc1cccc(C(=O)Nc2ccc3c(c2)C[C@@H](NCc2ccc(Cl)s2)C3)c1-c1ccc(C(F)(F)F)cc1` [Example 26], the pIC50 was 8.10 on Smoothened, 7.46 in assay [1] (setting [2]) and 6.34 in assay [1] (setting [3]).

Regarding `Cc1cccc(C(=O)Nc2ccc3c(c2)C[C@@H](NCc2ccc(-n4ccnc4)cc2)C3)c1-c1ccc(C(F)(F)F)cc1` [Example 28], the pIC50 at Smoothened is 8.70; in assay [1] (setting [2]), 7.92; in assay [1] (setting [3]), 6.32.

`Cc1cccc(C(=O)Nc2ccc3c(c2)C[C@@H](NCc2cnc4ccccc4c2)C3)c1-c1ccc(C(F)(F)F)cc1` [Example 29]: the values for the pIC50 (at Smoothened; in assay [1] (setting [2]); in assay [1] (setting [3])) were 6.31, 5.78 and 5.31, respectively.

In the case of `Cc1cccc(C(=O)Nc2ccc3c(c2)C[C@@H](NCc2cccnc2Cl)C3)c1-c1ccc(C(F)(F)F)cc1` [Example 30], the figures for the pIC50 (at Smoothened; in assay [1] (setting [2]); in assay [1] (setting [3])) were 7.41, 6.87 and 5.84, respectively.

For `Cc1cccc(C(=O)Nc2ccc3c(c2)C[C@@H](NCc2ccc4c(c2)CCO4)C3)c1-c1ccc(C(F)(F)F)cc1` [Example 31], the pIC50 at Smoothened was 7.55; in assay [1] (setting [2]) it was 6.55; in assay [1] (setting [3]) it was 5.52.

As to `COc1ccc(CN[C@H]2Cc3ccc(NC(=O)c4cccc(C)c4-c4ccc(C(F)(F)F)cc4)cc3C2)cn1` [Example 32], the pIC50 at Smoothened is 6.89; in assay [1] (setting [2]), 6.58; in assay [1] (setting [3]) it was 5.54.

Turning to `Cc1cccc(C(=O)Nc2ccc3c(c2)C[C@@H](N(C)Cc2ccccn2)C3)c1-c1ccc(C(F)(F)F)cc1` [Example 38], the pIC50 was 5.20 at Smoothened, 5.76 in assay [1] (setting [2]) and 4.88 in assay [1] (setting [3]).

For the molecule `Cc1cccc(C(=O)Nc2ccc3c(c2)CC(NCc2nccn2C)C3)c1-c1ccc(C(F)(F)F)cc1` (stereo not drawn) [Example 40], the pIC50 at Smoothened was 6.35; in assay [1] (setting [2]) it was 6.84; in assay [1] (setting [3]), 5.72.

`Cc1cccc(C(=O)Nc2ccc3c(c2)CC(NCc2cc4ccccc4o2)C3)c1-c1ccc(C(F)(F)F)cc1` (stereo not drawn) [Example 41]: the pIC50 on Smoothened is 8.52; in assay [1] (setting [2]) it was 7.09; in assay [1] (setting [3]), 6.21.

As for `Cc1cccc(C(=O)Nc2ccc3c(c2)CC(NCc2ccccn2)C3)c1-c1ccc(C(F)(F)F)cc1` (stereo not drawn) [Example 45], the figures for the pIC50 (on Smoothened; in assay [1] (setting [2]); in assay [1] (setting [3])) were 6.85, 7.07 and 5.94, respectively.

Consider `COC(=O)NC(CNC1Cc2ccc(NC(=O)c3cccc(C)c3-c3ccc(C(F)(F)F)cc3)cc2C1)Cc1ccccc1` (stereo not drawn) [Example 49], for which the pIC50 was 6.93 at Smoothened, 6.65 in assay [1] (setting [2]) and 5.57 in assay [1] (setting [3]).

With `Cc1cccc(C(=O)Nc2ccc3c(c2)CC(NCC2CCCCC2)C3)c1-c1ccc(C(F)(F)F)cc1` (stereo not drawn) [Example 50], the pIC50 on Smoothened was 6.21; in assay [1] (setting [2]), 6.05; in assay [1] (setting [3]), 4.93.

As for `COC(=O)N1CCC(CNC2Cc3ccc(NC(=O)c4cccc(C)c4-c4ccc(C(F)(F)F)cc4)cc3C2)CC1` (stereo not drawn) [Example 51], the pIC50 at Smoothened is 4.86; in assay [1] (setting [2]), 5.15; in assay [1] (setting [3]) it was 4.95.

As to `O=C(Nc1ccc2c(c1)CC(NCCc1ccccc1)C2)c1ccccc1-c1ccc(C(F)(F)F)cc1` (stereo not drawn) [Example 53], the results for the pIC50 (at Smoothened; in assay [1] (setting [2]); in assay [1] (setting [3])) were 5.10, 6.58 and 5.75, respectively.

Take `Cc1ccc(-c2ccc(C(F)(F)F)cc2)c(C(=O)Nc2ccc3c(c2)CC(NCc2ccccn2)C3)c1` (stereo not drawn) [Example 54]: the pIC50 at Smoothened was 4.78; in assay [1] (setting [2]) it was 5.06; in assay [1] (setting [3]) it was 5.17.

Regarding `O=C(Nc1ccc2c(c1)CC(NCc1ccccc1)C2)c1ccccc1-c1ccc(C(F)(F)F)cc1` (stereo not drawn) [Example 56], the pIC50 on Smoothened was 6.57; in assay [1] (setting [2]) it was 6.78; in assay [1] (setting [3]), 5.38.

As to `Cc1cccc(C(=O)Nc2ccc3c(c2)CC(NCc2nc4ccccc4n2C)C3)c1-c1ccc(C(F)(F)F)cc1` (stereo not drawn) [Example 57], the pIC50 at Smoothened was 7.55; in assay [1] (setting [2]), 5.51; in assay [1] (setting [3]) it was 4.76.

On to `CCCNC1Cc2ccc(NC(=O)c3cccc(C)c3-c3ccc(C(F)(F)F)cc3)cc2C1` (stereo not drawn) [Example 58], for which the pIC50 was 5.37 on Smoothened, 6.19 in assay [1] (setting [2]) and 5.00 in assay [1] (setting [3]).

Regarding `Cc1cccc(C(=O)Nc2ccc3c(c2)CC(NCc2cccn2C)C3)c1-c1ccc(C(F)(F)F)cc1` (stereo not drawn) [Example 59], the pIC50 was 7.68 on Smoothened, 6.95 in assay [1] (setting [2]) and 5.46 in assay [1] (setting [3]).

With `O=C(Nc1ccc2c(c1)CC(NCc1ncc[nH]1)C2)c1cccc(C(F)(F)F)c1-c1ccc(C(F)(F)F)cc1` (stereo not drawn) [Example 60], the pIC50 was 5.44 at Smoothened, 4.88 in assay [1] (setting [2]) and 4.63 in assay [1] (setting [3]).

For `Cc1cccc(C(=O)Nc2ccc3c(c2)CC(NCc2c[nH]c4ccccc24)C3)c1-c1ccc(C(F)(F)F)cc1` (stereo not drawn) [Example 61], the values for the pIC50 (on Smoothened; in assay [1] (setting [2]); in assay [1] (setting [3])) were 6.52, 5.68 and 4.92, respectively.

Consider `Cc1cccc(C(=O)Nc2ccc3c(c2)CC(NCc2ccco2)C3)c1-c1ccc(C(F)(F)F)cc1` (stereo not drawn) [Example 62], for which the results for the pIC50 (at Smoothened; in assay [1] (setting [2]); in assay [1] (setting [3])) were 6.99, 6.85 and 5.79, respectively.

Turning to `Cc1cccc(C(=O)Nc2ccc3c(c2)CC(NCc2ccoc2)C3)c1-c1ccc(C(F)(F)F)cc1` (stereo not drawn) [Example 63], the pIC50 on Smoothened was 6.31; in assay [1] (setting [2]), 6.16; in assay [1] (setting [3]) it was 4.86.

Take `Cc1cccc(C(=O)Nc2ccc3c(c2)CC(NCc2ccc(-c4ccc(Cl)cc4)o2)C3)c1-c1ccc(C(F)(F)F)cc1` (stereo not drawn) [Example 64]: the values for the pIC50 (on Smoothened; in assay [1] (setting [2]); in assay [1] (setting [3])) were 6.87, 7.32 and 5.88, respectively.

Regarding `Cc1cccc(C(=O)Nc2ccc3c(c2)CC(NCc2cccnc2)C3)c1-c1ccc(C(F)(F)F)cc1` (stereo not drawn) [Example 66], the pIC50 on Smoothened is 6.23; in assay [1] (setting [2]) it was 6.61; in assay [1] (setting [3]) it was 5.00.

In the case of `Cc1cccc(C(=O)Nc2ccc3c(c2)CC(NCc2ccncc2)C3)c1-c1ccc(C(F)(F)F)cc1` (stereo not drawn) [Example 67], the pIC50 on Smoothened is 6.31; in assay [1] (setting [2]), 6.85; in assay [1] (setting [3]), 5.38.

For the molecule `Cc1cccc(C(=O)Nc2ccc3c(c2)CCC(NCc2ccccn2)CC3)c1-c1ccc(C(F)(F)F)cc1` (stereo not drawn) [Example 68], the figures for the pIC50 (at Smoothened; in assay [1] (setting [2]); in assay [1] (setting [3])) were 6.44, 6.86 and 5.31, respectively.

Take `Cc1cccc(C(=O)Nc2ccc3c(c2)CCC(NCc2ccccc2)CC3)c1-c1ccc(Cl)cc1` (stereo not drawn) [Example 69]: the pIC50 is 6.21 at Smoothened, 5.60 in assay [1] (setting [2]) and 4.90 in assay [1] (setting [3]).

In the case of `Cc1cccc(C(=O)Nc2ccc3c(c2)CC(NCc2ccccc2F)C3)c1-c1ccc(C(F)(F)F)cc1` (stereo not drawn) [Example 71], the pIC50 at Smoothened was 7.96; in assay [1] (setting [2]) it was 8.30; in assay [1] (setting [3]), 6.63.

Turning to `Cc1ccc(C(=O)Nc2ccc3c(c2)C[C@H](NCc2ccccn2)C3)c(-c2ccccc2)c1` [Example 73], the figures for the negative logarithm of the IC50 (pIC50) (on Smoothened; in assay [1] (setting [2]); in assay [1] (setting [3])) were 6.03, 7.00 and 5.65, respectively.

Take `Cc1cccc(C(=O)Nc2ccc3c(c2)C[C@@H](Nc2ccccc2)C3)c1-c1ccc(C(F)(F)F)cc1` [Example 74, 6-Methyl-4′-trifluoromethyl-biphenyl-2-carboxylic acid ((S)-2-phenylamino-indan-5-yl)-amide]: the pIC50 on Smoothened is 7.33; in assay [1] (setting [2]), 7.72; in assay [1] (setting [3]), 6.25.

Consider `CCOC(=O)NC1CCc2ccc(NC(=O)c3cccc(C)c3-c3ccc(C(F)(F)F)cc3)cc2CC1` (stereo not drawn) [Example 84], for which the pIC50 is 6.06 at Smoothened, 6.15 in assay [1] (setting [2]) and 5.35 in assay [1] (setting [3]).

Take `CS(=O)(=O)NC1Cc2ccc(NC(=O)c3cccc(F)c3-c3ccc(C(F)(F)F)cc3)cc2C1` (stereo not drawn) [Example 92]: the pIC50 on Smoothened is 7.22; in assay [1] (setting [2]), 5.99; in assay [1] (setting [3]) it was 5.89.

Turning to `CCCCS(=O)(=O)NC1Cc2ccc(NC(=O)c3cccc(C)c3-c3ccc(C(F)(F)F)cc3)cc2C1` (stereo not drawn) [Example 102], the figures for the pIC50 (at Smoothened; in assay [1] (setting [2])) were 6.66 and 5.72, respectively.

As for `Cc1cccc(C(=O)Nc2ccc3c(c2)CCC(NS(C)(=O)=O)CC3)c1-c1ccc(C(F)(F)F)cc1` (stereo not drawn) [Example 103], the values for the pIC50 (at Smoothened; in assay [1] (setting [2]); in assay [1] (setting [3])) were 5.49, 5.32 and 4.99, respectively.

On to `O=C(Nc1ccc2c(c1)CCC(NS(=O)(=O)c1ccccc1F)CC2)c1ccccc1-c1ccc(C(F)(F)F)cc1` (stereo not drawn) [Example 104], for which the pIC50 (at Smoothened; in assay [1] (setting [2])) was 5.45 in each case.

Regarding `Cc1cccc(C(=O)Nc2ccc3c(c2)CCC(NS(=O)(=O)c2cccs2)CC3)c1-c1ccc(C(F)(F)F)cc1` (stereo not drawn) [Example 105], the pIC50 is 6.47 on Smoothened, 6.08 in assay [1] (setting [2]) and 4.69 in assay [1] (setting [3]).

On to `Cc1cccc(C(=O)Nc2ccc3c(c2)CCC(NS(=O)(=O)c2ccccc2F)CC3)c1-c1ccc(C(F)(F)F)cc1` (stereo not drawn) [Example 106], for which the pIC50 at Smoothened is 6.48; in assay [1] (setting [2]), 5.23.
